Each structure is given as a SMILES string.

Data on 2 compounds can be found in patent publication US20250009743A1, “METHODS OF TREATING CANCERS USING STING AGONISTS” (Dana-Farber Cancer Institute, Inc., priority 2021, published 2025).

Test [1] deals with mouse bone marrow-derived macrophages (BMDMs). Put plainly: Polarization of mouse BMDMs / tumor cell-educated macrophages (flow cytometry, RNA-seq, morphology). The format is cell-based. How it is done: Mouse macrophages and dendritic cells (DCs) were derived from the bone marrow (BM) of FVB/NJ mice by modifying protocols described in (Weischenfeldt J, Porse B. CSH Protoc 2008; Guo X, et al. J Immunol Methods 2016; 432:24-9). For generation of BM-derived macrophages (BMDMs), BM cells were seeded on ultra-low attachment plates (Corning) or petri dishes (Falcon) and cultured in DMEM supplemented with 10 ng/ml M-CSF (BioLegend, #576404), 10% FBS and 100 μg/mL penicillin-streptomycin. Fresh DMEM with 10 ng/ml M-CSF was added after 3 days, and cells were incubated for another 4 days before harvesting adherent cells (BMDMs). For DC differentiation, BM cells were seeded on tissue culture dishes (Corning) and cultured in RPMI 1640 supplemented with 20 ng/mL GM-CSF (Stem Cell Technologies, #78017), 10% FBS and 100 μg/mL penicillin-streptomycin. Fresh RPMI 1640 with 20 ng/mL GM13 CSF was added after 3 days, and non-adherent cells (DCs) were harvested after another 4 days. For preparation of tumor cell-conditioned media (CM), tumor cells were grown to 60% of confluence, washed twice with PBS, and then incubated with fresh DMEM for two days. CM were then harvested and centrifuged to collect the supernatant.
For flow cytometry analyses of tumor and TDLN samples, single-cell suspensions were obtained as described above (Tissue Digestion). Cells were stained in cold FACS buffer (PBS containing 0.2% BSA and 5 mM EDTA) with LIVE/DEAD Fixable Aqua Dead Cell Stain (Thermo Fisher) for 30 min on ice, followed by blocking with anti-CD16/32 (BioLegend) for 20 min on ice. Cells were then incubated in FACS buffer for 30 min on ice with antibodies specific to CD45 (clone 30-F11, BioLegend), TCR β chain (clone H57-597, BioLegend), CD38 (clone 145-2C11, BioLegend), CD4 (clone RM4-5, BioLegend), CD8a (clone 53-6.7, BioLegend), PD-1 (clone 29F.1A12, BioLegend), CD44 (clone IM7, BioLegend), CD62L (clone MEL-14, BioLegend), IFN-γ (clone XMG1.2, BioLegend), TNF-α (clone MP6-XT22, BioLegend), Granzyme B (clone NGZB, eBioscience), CD11c (clone N418, BioLegend), I-A/I-E (clone M5/114.15.2, BioLegend), CD80 (clone 16-10A1, BioLegend), CD86 (clone GL-1, BioLegend), CD103 (clone 2E7, BioLegend), CD11b (M1/70, BioLegend), F4/80 (clone BM8, BioLegend), phospho-TBK1 (Ser172) (clone D52C2, Cell Signaling Tech.) or phospho-IRF-3 (Ser396) (clone D601M, Cell Signaling Tech.). For intracellular staining, Foxp3/Transcription Factor Staining Buffer Set (eBioscience, #00-5523-00) was used for fixation and permeabilization. For cytokine analysis, cells were stimulated with Leukocyte Activation Cocktail with protein transport inhibitor Brefeldin A (BD Biosciences, #550583) at 37° C. for 4 hours prior to the staining. Analysis of ϵ-HA2X (Ser139) was performed according to manufacturer's instructions. Briefly, ice-cold 70% ethanol (Decon) was added dropwise to the cell pellet while vortexing. Cells were then incubated at −20° C. for 1 hour and washed three times with cold staining buffer. For the staining, 5 μL p-HA2X antibody (clone 2F3, BioLegend) was added to approximately 1×10^6 cells in 100 μL staining buffer and incubated at 4° C. for 30 min. For Annexin V and 7-AAD staining, cells were detached with accutase (Sigma, #A6964). The detached cells (from culture medium and accutase treatment) were washed twice with cold PBS, and then incubated with 5 μL FITC Annexin V (BioLegend, #640906) and 10 μL 7-AAD (BioLegend, #420404) in 100 μL Annexin V binding buffer (BioLegend, #422201) at room temperature for 15 min. Flow cytometry was performed on an LSR Fortessa HTS analyzer (BD Biosciences). All data were analyzed using FlowJo software.
For in vitro co-culture of tumor cells with macrophages, 2×10^5 tumor cells per well were co-cultured with macrophages at a ratio of 1:1 (BP cells: mouse BMDMs) or 1:1.5 (MDA-MB-436 cells: THP-1 macrophages) in 6-well plates with indicated drug treatments or DMSO vehicle control for two days. […]

Test [2] relates to orthotopic BP tumors. The test is described as follows: BP (Brca1−/− Trp53−/−) orthotopic tumor growth in FVB mice. The format is in vivo, mouse. How it is done:
Primary mammary tumor cells for orthotopic injection were resuspended in serum-free DMEM containing 40% matrigel (Corning). […] Tumor growth was examined by measuring the greatest longitudinal diameter (length) and the greatest transverse diameter (width) with digital calipers, and tumor volume was calculated by use of the modified ellipsoid formula (0.52×length×width2). Tumors were measured 2-3 times a week. All tumor measurements within single cohorts were performed by the same researcher. Tumor-bearing mice were randomized prior to start of treatment. Drug treatments were started when mean tumor volumes approximated 50-100 mm3. Mice were euthanized by CO2 inhalation when tumor volumes met humane endpoints described in the IACUC (20 mm diameter) protocols or upon severe health deterioration.
For intratumoral injection (i.t.), 250 μg DMXAA (approximately 10 mg/kg body weight) was administered once per week for 3 doses. For i.p. injections, DMXAA was administered at a dose of 10 mg/kg body weight once weekly and terminated if tumor size exceeded 600 mm3. […] Anti-mouse CSF1R antibody (CS7, Eli Lilly) was dosed at 40 mg/kg via i.p. every 3 days.

The mark [3] stands for this setting: olaparib 50 mg/kg i.p. q.d., DMXAA 10 mg/kg intratumoral once per week, 3 doses, start around 100 mm3, FIG. 9A.
Setting [4] is: BMDMs with BP-CM or BP/OL-CM, DMXAA 0.05 mg/mL, 24 hours, FIG. 7A.

Turning to `O=C(c1cc(Cc2n[nH]c(=O)c3ccccc23)ccc1F)N1CCN(C(=O)C2CC2)CC1` [olaparib], the “gene expression of BMDMs (RNA-seq)” value in test [1] (olaparib 5 μM, 24 hours, FIG. 3C) was “no significant direct effects”. Also, the “macrophage polarization (M1-like / M2-like)” value in test [1] (olaparib alone, two days, FIG. 3B) is reported as “little effect”. The BP tumor growth entry in test [2] (olaparib 50 mg/kg i.p. daily, FIG. 1C) was “modest”; in test [2] (setting [3]), “modest tumor growth inhibition”.
In the case of `Cc1ccc2c(=O)c3cccc(CC(=O)O)c3oc2c1C` [DMXAA, 5,6-dimethyl-xanthenone-4-acetic acid], in test [1] (BMDMs from STING knockout mice, DMXAA 2 days, FIG. 7F), the “CD86 expression of STING−/− TEMs” value is given as “failed to increase”. In addition, in test [1] (BMDMs incubated with BP-CM, DMXAA 0.05 mg/mL, 24 hours, FIG. 8B), the macrophage morphology entry is “changed these cells to a “fried egg” shape”. Further, in test [1] (setting [4]), the “expression of genes of anti-tumorigenic M1 signature” value is listed as “strongly stimulated” and the “expression of pro-tumorigenic M2 genes” value is given as “suppressed”. Also, the “M1-like to M2-like ratio of TEMs” value in test [1] (BP TEMs, DMXAA 0.05 mg/mL, two days, FIG. 7C) is given as “reversed TEMs to M1-like macrophages”. Also, in test [1] (BP TEMs, DMXAA 24 hours, FIG. 7D), the “TEM STING pathway activation (p-TBK1+p-IRF3+)” value is recorded as “significantly increased”. Also, the BP tumor growth result in test [2] (setting [3]) is recorded as “modest tumor growth inhibition”.
